Test results taken from US9518976B2, “Methods for identifying or assaying for agents that increase beta-cell proliferation, insulin secretion, insulin sensitivity, glucose tolerance and decrease fat mass” (The Trustees of Columbia University in The City of New York, priority 2006, dated 2016).
Ends that are not written are not given here.

Columns and labels:
[1] = tested on: Wild type mice; assay: Osteocalcin subcutaneous infusion in wt mice: glycemia; format: in vivo, mouse; details: 0.3, 1 and 3 ng/hour subcutaneous infusion for 28 days, vs PBS
Protocol: FIG. 10. […] Indicated doses of recombinant osteocalcin or PBS were infused subcutaneously for 28 days in wt mice. Blood glucose was measured at indicated days.
An in vivo experiment was conducted in which the effect of undercarboxylated osteocalcin on glycemia was monitored. Wild type mice were infused with 3 different amounts of mouse recombinant undercarboxylated osteocalcin or placebo (PBS) subcutaneously for 28 days (0.3, 1 and 3 ng/hour).

[2] = tested on: Wild type adipocytes; assay: Adiponectin expression in wt adipocytes treated with osteocalcin (real time PCR); format: cell-based, mouse; details: wild type adipocytes treated for 4 hours; real time PCR; vs vehicle
Source text: (§1) FIG. 7. Esp−/− Mice Are a Model of Increased Osteocalcin Bioactivity. (A-G) Comparison between 6-week-old WT, Esp−/, Ocn+/−, and Esp−/−; Ocn+/− mice. (A) Blood glucose levels. (B) Serum insulin levels. (C) Serum adiponectin levels. (D) GTT. (E) ITT. (F) GSIS test. (G) Quantification of the number of Ki67-immunoreactive cells in pancreatic islets. […] (J) Expression of Adiponectin in WT adipocytes cocultured with osteoblasts treated with warfarin or vehicle. (K) Expression of Adiponectin in WT adipocytes cultured in presence of vehicle or of 1 ng/ml of commercially available carboxylated osteocalcin (Immunotopics) or bacterially produced uncarboxylated osteocalcin. (L) Expression of Insulin and Cyclin D1 in WT islets cultured in presence of 0.3 ng/ml of bacterially produced uncarboxylated osteocalcin or vehicle. (M) Metabolic parameters and total serum osteocalcin levels in control and obese patients. (N-O) Quantification of carboxylated osteocalcin (HA-bound osteocalcin) in control and obese patients. In (A)-(C) and (G)-(L): *p<0.05 versus WT (Student's t test); in (D)-(F), °p<0.05 versus WT and *p % 0.001 versus WT (ANOVA followed by post hoc analysis).
FIG. 15. […] Wt adipocytes were treated for 4 hours with recombinant full-length osteocalcin (1-46) or a truncated form (1-36) or vehicle. Adiponectin expression was then quantified by real time PCR.
Primary adipocytes were isolated from epididymal fat pads by collagenase digestion. Briefly, minced adipose tissue was digested by 1 mg/ml collagenase P in KRP Buffer (20 mM HEPES, 120 mM NaCl, 6 mM KCl, 1.2 mM MgSO4, 1 mM CaCl2, 0.6 mM Na2HPO4, 0.4 mM NaH2PO4, 2.5 mM D-glucose, 2% BSA, pH 7.4) for 1 h at 37° C. The isolated cells were washed twice with KRP Buffer before being cultured in αMEM/1% FBS at 37° C. in 5% CO2.
All gene expression analyses were performed using real time PCR. DNAse I-treated total RNA was converted to cDNA with the SuperScript III kit (Invitrogen). Real-time PCR were performed using the Taq SYBR Green Supermix with ROX (Biorad) on an MX3000 instrument (Stratagene); beta-actin amplification was used as an internal reference for each sample. All primers were from SuperArray.
Experiments were performed to test whether truncated osteocalcin was as effective as full-length uncarboxylated osteocalcin in stimulating adiponectin secretion from mouse adipocytes in vitro. Wild type adipocytes were treated for 4 hours with recombinant full-length osteocalcin (1-46) or a truncated form (1-36) (having a deletion of the […] ten amino acids from the C-terminal end) or vehicle. Adiponectin expression was then quantified by real time PCR. […]

[3] = tested on: WT islets; assay: Insulin and Cyclin D1 expression in WT islets cultured with uncarboxylated osteocalcin; format: cell-based, mouse; details: 0.3 ng/ml (FIG. 7L)
Source text: as §1
Islets were isolated using a Histopaque gradient (1077, Sigma). In brief, after clamping the common bile duct at its entrance to the duodenum, 1 mg/ml collagenase P (Sigma) in M199 medium (GIBCO) was injected into the duct. […]

uncarboxylated osteocalcin: Recombinant mouse osteocalcin bacterially produced, cleaved from GST with thrombin; completely undercarboxylated at all three sites (YLGASVPSPDPLEPTREQCELNPACDELSDQYGLKTAYKRIYGITI; not fully specified; ends and bridges not checked; UniProt P86546 50-95, looked up)
glycemia (blood glucose) ([1]; listed as recombinant osteocalcin): decreases glycemia
glycemia (blood glucose) ([1]; listed as undercarboxylated osteocalcin): decreased glycemia
Adiponectin expression increase [2]: ~1.5 fold
expression of Cyclin D1, marker of beta-cell proliferation [3]: induced
insulin expression [3]: induced
